In the oligonucleotide strings, read from the 5' end, every base follows the letter of its sugar. An asterisk marks phosphorothioate; unmarked linkages are phosphodiester. Other units and linkages are bracketed, terminal groups are in braces. A string of capitals states the bases alone. e = 2'-O-(2-methoxyethyl) (MOE); [5mC] = 5-methylcytosine; d = 2'-deoxy (DNA)

The series concerns human Factor 7 mRNA. Description: Inhibition of human Factor 7 mRNA by 2-10-2 MOE shortmers in HepB3 cells, electroporation, 1,000 nM. The class given is cell-based. The settings on record: electroporation, 1,000 nM oligonucleotide, approximately 24 hours, relative to untreated control cells. The method, boiled down: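 14-mer 2-10-2 2′-MOE gapmers, full phosphorothioate, 5-methylcytidines, electroporated at 1,000 nM into HepB3 cells (20,000/well). After ~24 h, mRNA quantified by real-time RT-PCR, normalized to RIBOGREEN total RNA; percent inhibition relative to untreated cells.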
On to “435808 (antisense e[5mC]*eT*d[5mC]*dT*dG*dG*dA*d[5mC]*dA*d[5mC]*d[5mC]*dG*eG*eG) [compound 435808]”, for which the “% inhibition of human Factor 7 mRNA” value was 66%.

“435720 (antisense eA*eG*dG*d[5mC]*dT*d[5mC]*dA*dG*d[5mC]*dT*dG*dG*eG*e[5mC]) [compound 435720]”: the “% inhibition of human Factor 7 mRNA” value is on record as 16%.

Turning to “435715 (antisense e[5mC]*eA*dG*d[5mC]*d[5mC]*dA*d[5mC]*dT*d[5mC]*dG*dA*dT*eG*eT) [compound 435715]”, the “% inhibition of human Factor 7 mRNA” value is listed as 35%.

As to “435696 (antisense e[5mC]*eA*dG*dA*dA*d[5mC]*dA*dT*dG*dT*dA*d[5mC]*eT*e[5mC]) [compound 435696]”, the “% inhibition of human Factor 7 mRNA” value was determined as 10%.

With “435797 (antisense eA*eA*dT*d[5mC]*dT*dT*dG*dG*d[5mC]*d[5mC]*d[5mC]*d[5mC]*eT*e[5mC]) [compound 435797]”, the “% inhibition of human Factor 7 mRNA” value is 16%.

Turning to “435671 (antisense eT*e[5mC]*dA*d[5mC]*d[5mC]*dA*dA*d[5mC]*dA*dA*d[5mC]*dA*eG*eG) [compound 435671]”, the “% inhibition of human Factor 7 mRNA” value came out at 28%.

As for “435721 (antisense eT*eA*dA*dG*dG*dA*dG*dG*d[5mC]*dT*d[5mC]*dA*eG*e[5mC]) [compound 435721]”, the “% inhibition of human Factor 7 mRNA” value was determined as 12%.

Turning to “435750 (antisense e[5mC]*eA*d[5mC]*dT*dG*d[5mC]*dA*dG*d[5mC]*d[5mC]*dA*dG*eG*eG) [compound 435750]”, the “% inhibition of human Factor 7 mRNA” value is reported as 14%.

In the case of “435643 (antisense e[5mC]*eT*dT*dG*d[5mC]*dA*dG*dG*dA*dG*d[5mC]*d[5mC]*e[5mC]*e[5mC]) [compound 435643]”, the “% inhibition of human Factor 7 mRNA” value is 51%.

As to “435849 (antisense eT*eG*d[5mC]*d[5mC]*dG*dT*dA*dG*dT*dG*dG*d[5mC]*e[5mC]*eG) [compound 435849]”, the “% inhibition of human Factor 7 mRNA” value came to 31%.

Regarding “435771 (antisense eG*eT*d[5mC]*dA*dT*dA*dA*dG*dG*d[5mC]*d[5mC]*dA*eT*eG) [compound 435771]”, the “% inhibition of human Factor 7 mRNA” value turned out to be 13%.

For “435727 (antisense eT*eG*dG*dA*dG*dT*d[5mC]*dA*dG*d[5mC]*dA*dT*e[5mC]*eG) [compound 435727]”, the “% inhibition of human Factor 7 mRNA” value came out at 73%.

For “435655 (antisense eA*e[5mC]*dA*dG*d[5mC]*d[5mC]*dG*d[5mC]*d[5mC]*dG*dT*dT*e[5mC]*eT) [compound 435655]”, the “% inhibition of human Factor 7 mRNA” value is 49%.

Turning to “435847 (antisense eT*eG*dG*dT*dG*dT*dG*d[5mC]*dA*d[5mC]*dA*d[5mC]*eA*eT) [compound 435847]”, the “% inhibition of human Factor 7 mRNA” value was found to be 36%.

Take “435489 (antisense e[5mC]*eT*dG*dG*dT*dG*dT*dA*d[5mC]*dA*d[5mC]*d[5mC]*e[5mC]*e[5mC]) [compound 435489]”: the “% inhibition of human Factor 7 mRNA” value was determined as 72%.

Take “435662 (antisense eT*eG*dG*dA*dT*dA*dT*dT*d[5mC]*dA*dA*d[5mC]*eT*eG) [compound 435662]”: the “% inhibition of human Factor 7 mRNA” value was found to be 19%.

On to “435688 (antisense eA*e[5mC]*d[5mC]*dA*d[5mC]*dA*dT*dG*dG*dT*d[5mC]*dA*eG*eT) [compound 435688]”, for which the “% inhibition of human Factor 7 mRNA” value amounted to 0%.

As to “435830 (antisense eT*eG*dA*dT*dT*dT*dT*dG*d[5mC]*dA*dA*dA*eG*eA) [compound 435830]”, the “% inhibition of human Factor 7 mRNA” value was determined as 0%.

On to “435480 (antisense eG*eG*dT*d[5mC]*dA*dT*d[5mC]*dA*dG*d[5mC]*d[5mC]*dG*eG*eG) [compound 435480]”, for which the “% inhibition of human Factor 7 mRNA” value worked out at 53%.

Regarding “435674 (antisense eA*eA*dA*d[5mC]*dA*dG*dT*dG*dG*dG*d[5mC]*d[5mC]*eG*e[5mC]) [compound 435674]”, the “% inhibition of human Factor 7 mRNA” value is given as 34%.

For the substance “435737 (antisense eG*eT*dG*d[5mC]*dA*dG*d[5mC]*d[5mC]*d[5mC]*dG*dG*d[5mC]*eA*e[5mC]) [compound 435737]”, the “% inhibition of human Factor 7 mRNA” value is recorded as 70%.

(Values after patent US20120214862A1, “MODULATION OF FACTOR 7 EXPRESSION” (ISIS Pharmaceuticals, Inc., priority 2009, published 2012).)
